Results: PubChem BioAssay (NCI)
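Compound exposure: 48 hours, 5 concentrations, 96-well plates. TGI: total growth inhibition.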

Experiments:
Test in all cases: NCI-60 cell line screen, 48 h
SF-539 CNS = system: SF-539 CNS
HS 578T breast = system: HS 578T breast
CAKI-1 renal = system: CAKI-1 renal
SK-MEL-5 melanoma = system: SK-MEL-5 melanoma
BT-549 breast = system: BT-549 breast
MALME-3M melanoma = system: MALME-3M melanoma
HT29 colon = system: HT29 colon
COLO 205 colon = system: COLO 205 colon
UACC-257 melanoma = system: UACC-257 melanoma
A498 renal = system: A498 renal
T-47D breast = system: T-47D breast
LOX IMVI melanoma = system: LOX IMVI melanoma
IGROV1 ovarian = system: IGROV1 ovarian
NCI/ADR-RES ovarian = system: NCI/ADR-RES ovarian
UACC-62 melanoma = system: UACC-62 melanoma
SNB-19 CNS = system: SNB-19 CNS
DU-145 prostate = system: DU-145 prostate
SR leukemia = system: SR leukemia
NCI-H226 lung = system: NCI-H226 lung
MCF7 breast = system: MCF7 breast
786-0 renal = system: 786-0 renal
PC-3 prostate = system: PC-3 prostate
A549 NSCLC = system: A549 NSCLC
SF-268 CNS = system: SF-268 CNS
KM12 colon = system: KM12 colon
SK-MEL-28 melanoma = system: SK-MEL-28 melanoma
MDA-MB-231 breast = system: MDA-MB-231 breast
HCC-2998 colon = system: HCC-2998 colon
EKVX NSCLC = system: EKVX NSCLC
M14 melanoma = system: M14 melanoma
MDA-N = system: MDA-N
NCI-H522 lung = system: NCI-H522 lung
RPMI-8226 leukemia = system: RPMI-8226 leukemia
SK-MEL-2 melanoma = system: SK-MEL-2 melanoma
CCRF-CEM leukemia = system: CCRF-CEM leukemia
HL-60(TB) leukemia = system: HL-60(TB) leukemia
SF-295 CNS = system: SF-295 CNS
RXF 393 renal = system: RXF 393 renal
SK-OV-3 ovarian = system: SK-OV-3 ovarian
SN12C renal = system: SN12C renal
HCT-116 colon = system: HCT-116 colon
OVCAR-3 ovarian = system: OVCAR-3 ovarian
TK-10 renal = system: TK-10 renal
OVCAR-5 ovarian = system: OVCAR-5 ovarian
NCI-H23 lung = system: NCI-H23 lung
HOP-62 NSCLC = system: HOP-62 NSCLC
NCI-H460 lung = system: NCI-H460 lung
ACHN renal = system: ACHN renal
SW-620 colon = system: SW-620 colon
HCT-15 colon = system: HCT-15 colon
MOLT-4 leukemia = system: MOLT-4 leukemia
OVCAR-8 ovarian = system: OVCAR-8 ovarian
MDA-MB-435 = system: MDA-MB-435
OVCAR-4 ovarian = system: OVCAR-4 ovarian
K-562 leukemia = system: K-562 leukemia
U251 CNS = system: U251 CNS
UO-31 renal = system: UO-31 renal
SNB-75 CNS = system: SNB-75 CNS
HOP-92 NSCLC = system: HOP-92 NSCLC

C[n+]1ccccc1/C=C/c1ccc2c(c1)OCO2
TGI (SF-539 CNS): > 10 µM | TGI (HS 578T breast): > 10 µM | TGI (CAKI-1 renal): > 10 µM | TGI (SK-MEL-5 melanoma): > 10 µM | TGI (BT-549 breast): > 10 µM | TGI (MALME-3M melanoma): > 10 µM | TGI (HT29 colon): > 10 µM | TGI (COLO 205 colon): > 10 µM | TGI (UACC-257 melanoma): > 10 µM | TGI (A498 renal): > 10 µM | TGI (T-47D breast): > 10 µM | TGI (LOX IMVI melanoma): > 10 µM | TGI (IGROV1 ovarian): > 10 µM | TGI (NCI/ADR-RES ovarian): > 10 µM | TGI (UACC-62 melanoma): > 10 µM | TGI (SNB-19 CNS): > 10 µM | TGI (DU-145 prostate): > 10 µM | TGI (SR leukemia): > 10 µM | TGI (NCI-H226 lung): > 10 µM | TGI (MCF7 breast): > 10 µM | TGI (786-0 renal): > 10 µM | TGI (PC-3 prostate): > 10 µM | TGI (A549 NSCLC): > 10 µM | TGI (SF-268 CNS): > 10 µM | TGI (KM12 colon): > 10 µM | TGI (SK-MEL-28 melanoma): > 10 µM | TGI (MDA-MB-231 breast): > 10 µM | TGI (HCC-2998 colon): > 10 µM | TGI (EKVX NSCLC): > 10 µM | TGI (M14 melanoma): > 10 µM | TGI (MDA-N): > 10 µM | TGI (NCI-H522 lung): > 10 µM | TGI (RPMI-8226 leukemia): > 10 µM | TGI (SK-MEL-2 melanoma): > 10 µM | TGI (CCRF-CEM leukemia): > 10 µM | TGI (HL-60(TB) leukemia): > 10 µM | TGI (SF-295 CNS): > 10 µM | TGI (RXF 393 renal): > 10 µM | TGI (SK-OV-3 ovarian): > 10 µM | TGI (SN12C renal): > 10 µM | TGI (HCT-116 colon): > 10 µM | TGI (OVCAR-3 ovarian): > 10 µM | TGI (TK-10 renal): > 10 µM | TGI (OVCAR-5 ovarian): > 10 µM | TGI (NCI-H23 lung): > 10 µM | TGI (HOP-62 NSCLC): > 10 µM | TGI (NCI-H460 lung): > 10 µM | TGI (ACHN renal): > 10 µM | TGI (SW-620 colon): > 10 µM | TGI (HCT-15 colon): > 10 µM | TGI (MOLT-4 leukemia): > 10 µM | TGI (OVCAR-8 ovarian): > 10 µM | TGI (MDA-MB-435): > 10 µM | TGI (OVCAR-4 ovarian): > 10 µM | TGI (K-562 leukemia): > 10 µM | TGI (U251 CNS): > 10 µM

O=C(O)C1(C(=O)O)CCN(S(=O)(=O)c2ccccc2)CC1
TGI (SF-539 CNS): > 100 µM | TGI (HS 578T breast): > 100 µM | TGI (CAKI-1 renal): > 100 µM | TGI (SK-MEL-5 melanoma): > 100 µM | TGI (BT-549 breast): > 100 µM | TGI (MALME-3M melanoma): > 100 µM | TGI (HT29 colon): > 100 µM | TGI (COLO 205 colon): > 100 µM | TGI (UACC-257 melanoma): > 100 µM | TGI (A498 renal): > 100 µM | TGI (T-47D breast): > 100 µM | TGI (LOX IMVI melanoma): > 100 µM | TGI (IGROV1 ovarian): > 100 µM | TGI (NCI/ADR-RES ovarian): > 100 µM | TGI (UACC-62 melanoma): > 100 µM | TGI (SNB-19 CNS): > 100 µM | TGI (DU-145 prostate): > 100 µM | TGI (SR leukemia): > 100 µM | TGI (NCI-H226 lung): > 100 µM | TGI (MCF7 breast): > 100 µM | TGI (786-0 renal): > 100 µM | TGI (UO-31 renal): > 100 µM | TGI (PC-3 prostate): > 100 µM | TGI (A549 NSCLC): > 100 µM | TGI (SF-268 CNS): > 100 µM | TGI (KM12 colon): > 100 µM | TGI (SK-MEL-28 melanoma): > 100 µM | TGI (MDA-MB-231 breast): > 100 µM | TGI (EKVX NSCLC): > 100 µM | TGI (M14 melanoma): > 100 µM | TGI (MDA-N): > 100 µM | TGI (NCI-H522 lung): > 100 µM | TGI (RPMI-8226 leukemia): > 100 µM | TGI (SK-MEL-2 melanoma): > 100 µM | TGI (CCRF-CEM leukemia): > 100 µM | TGI (HL-60(TB) leukemia): > 100 µM | TGI (SF-295 CNS): > 100 µM | TGI (RXF 393 renal): > 100 µM | TGI (SK-OV-3 ovarian): > 100 µM | TGI (SN12C renal): > 100 µM | TGI (HCT-116 colon): > 100 µM | TGI (OVCAR-3 ovarian): > 100 µM | TGI (TK-10 renal): > 100 µM | TGI (OVCAR-5 ovarian): > 100 µM | TGI (NCI-H23 lung): > 100 µM | TGI (HOP-62 NSCLC): > 100 µM | TGI (NCI-H460 lung): > 100 µM | TGI (ACHN renal): > 100 µM | TGI (SW-620 colon): > 100 µM | TGI (HCT-15 colon): > 100 µM | TGI (MOLT-4 leukemia): > 100 µM | TGI (OVCAR-8 ovarian): > 100 µM | TGI (MDA-MB-435): > 100 µM | TGI (SNB-75 CNS): > 100 µM | TGI (HOP-92 NSCLC): > 100 µM | TGI (OVCAR-4 ovarian): > 100 µM | TGI (K-562 leukemia): > 100 µM | TGI (U251 CNS): > 100 µM
